Assay results reported in paper PMC3660459 (PLoS ONE, 2013).
Converted amounts (≈) assume the structure as drawn. “And” between values parts separate entries of the source, which are not always exact repeats. Identical values can stand only once.

Key:
F. tularensis Schu S4 [1] = type: cell-based, Francisella tularensis subspecies tularensis Schu S4
F. tularensis Schu S4 [2] = test: microbe, parasite or virus in culture; type: cell-based, Francisella tularensis subspecies tularensis Schu S4; details: Francisella tularensis, SCHUS4
[3] = target: NH3-dependent NAD^+ synthetase (nadE); details: read-out: enzymatic IC50; cited from earlier work
B. anthracis Sterne = details: cited from earlier work

| Compound | Growth Inhibition (F. tularensis Schu S4 [1]) | other results |
| --- | --- | --- |
| CCOC(=O)c1cc2c(nc1C(=O)OCC)CCCC2=O [Compound 31, n1c2c(cc(c1C( = O)OCC)C( = O)OCC)C( = O)CCC2] | No | – |
| OCC1OC(Oc2ccc(Cl)cc2Cl)C(O)C(O)C1O (centres unmarked) [Compound 24, Clc1c(ccc(c1)Cl)OC2OC(C(C(C2O)O)O)CO] | showed activity against the bacteria and Yes | MIC (F. tularensis Schu S4 [2]): > 125 µg/mL and ~400 µM; Toxicity (RAW 264.7 cells): non-toxic |
| NC(=O)c1ccc(-c2ccc(/C=C3/C(=O)NN(c4ccc(F)cc4)C3=O)o2)cc1 [Compound 10, Fc1ccc(cc1)N2NC( = O)\C( = C\c3[o]c(cc3)c4ccc(cc4)C( = O)N)\C2 = O] | No | – |
| O[C@@H]1[C@@H](O)[C@H](Nc2ccc(Br)cc2)OC[C@H]1O [Compound 27, Brc1ccc(cc1)N[C@@H]2OC[C@H]([C@@H]([C@H]2O)O)O] | No | – |
| O=[N+]([O-])c1ccc(NC2OC(CO)C(O)C(O)C2O)cc1 (centres unmarked) [Compound 22, [N+]( = O)([O-])c1ccc(cc1)NC2OC(C(C(C2O)O)O)CO] | No | – |
| Nc1ccccc1CN1C(=O)c2ccccc2C1=O [Compound 15, N2(C( = O)c3c(cccc3)C2 = O)Cc1c(cccc1)N] | No | – |
| Cc1nn2c(=O)c3ccccc3[nH]c2c1C=O [Compound 13, [n]21nc(c(c2Nc3c(cccc3)C1 = O)C = O)C] | showed activity against the bacteria and Yes | MIC (F. tularensis Schu S4 [2]): > 125 µg/mL and ~400 µM; Toxicity (RAW 264.7 cells): non-toxic |
| COc1ccc([C@@H]2CC(=O)c3c(O)cc(O)cc3O2)cc1O [Compound 33, O1[C@@H](CC( = O)c3c1cc(cc3O)O)c2cc(c(cc2)OC)O] | No | – |
| O=C1/C(=C\c2ccc(-n3ccnc3)cc2)Oc2cc(O)ccc21 [Compound 5, [n]4(cncc4)c1ccc(cc1)\C = C2\Oc3c(ccc(c3)O)C\2 = O] | showed activity against the bacteria and Yes | MIC (F. tularensis Schu S4 [2]): > 125 µg/mL; Toxicity (RAW 264.7 cells): non-toxic |
| Cc1cc2ccccc2n1CC(=O)NCc1cccnc1N(C)C [Compound 18, [n]2(c3c(cc2C)cccc3)CC( = O)NCc1c(nccc1)N(C)C] | No | – |
| Cc1ccc(-c2cc(C(F)(F)F)nn2-c2ccc(S(N)(=O)=O)cc2)cc1 [Compound 4, FC(F)(F)c1n[n](c(c1)c3ccc(cc3)C)c2ccc(cc2)[S]( = O)( = O)N] | No | – |
| CCOc1ccc(NC2OC(CO)C(O)C(O)C2O)cc1 (centres unmarked) [Compound 25, N(C2OC(C(C(C2O)O)O)CO)c1ccc(cc1)OCC] | No | – |
| O.O.O=C1NC(c2ccccc2)(c2ccccc2)C(=O)N1COP(=O)(O)O [Compound 2, [P]( = O)([O-])([O-])OCN1C( = O)NC(C1 = O)(c3ccccc3)c2ccccc2.O.O] | No | – |
| O=C(Cn1cc(/C=C/c2nc(O)nc(O)c2[N+](=O)[O-])c2ccccc21)Nc1ccc(F)cc1 [Compound 36, Fc1ccc(cc1)NC( = O)C[n]2c3c(c(c2)\C = C\c4nc(nc(c4[N+]( = O)[O-])O)O)cccc3] | No | – |
| NC(=O)c1nc[nH]c1C(N)=O [Compound 21, [nH]1cnc(c1C( = O)N)C( = O)N] | No | – |
| Cc1cc(Nc2ccccc2)n(C(=O)c2ccc(Cl)cc2)n1 [Compound 14, Clc1ccc(cc1)C( = O)[n]2nc(cc2Nc3ccccc3)C] | showed activity against the bacteria and Yes | Reduction of growth versus no-compound control (F. tularensis Schu S4 [1]): completely abolished bacterial growth; MIC (F. tularensis Schu S4 [2]): 4 µg/mL (≈ 12.8 µM) |
| O=Cc1cnn2c(=O)c3ccccc3[nH]c12 [Compound 12, [n]21ncc(c2Nc3c(cccc3)C1 = O)C = O] | showed activity against the bacteria and Yes | MIC (F. tularensis Schu S4 [2]): 63 µg/mL (≈ 296 µM) |
| CC(c1cc2ccccc2s1)N(O)C(N)=O (centres unmarked) [Compound 3, [s]1c2c(cc1C(N(O)C( = O)N)C)cccc2] | No | – |
| CC(C)[C@H](N)C(=O)OCCOCn1cnc2c(O)nc(N)nc21 [Compound 34, [n]1(c2nc(nc(c2nc1)O)N)COCCOC( = O)[C@@H](N)C(C)C] | No | – |
| NC(Cc1ccc(Br)s1)C(=O)O (centres unmarked) [Compound 7, [s]1c(ccc1CC(N)C( = O)O)Br] | No | – |

| Compound | Growth Inhibition (F. tularensis Schu S4 [1]) | other results |
| --- | --- | --- |
| N2(NC( = CC2(O)c3cc(ccc3)OC)CC)C( = O)c1ccccc1 [Compound 38] | No | – |
| Cc1ccc(NC2OCC(O)C(O)C2O)cc1 (centres unmarked) [Compound 29, N(C2OCC(C(C2O)O)O)c1ccc(cc1)C] | No | – |
| NC(=O)c1ccc(Oc2ccccc2O)c(F)c1 [Compound 17, Fc1c(ccc(c1)C( = O)N)Oc2c(cccc2)O] | No | – |
| Nc1nc(NC2CC2)c2ncn([C@H]3C=C[C@@H](CO)C3)c2n1 [Compound 1, [n]2(c3nc(nc(c3nc2)NC4CC4)N)[C@@H]1C[C@@H](C = C1)CO] | No | – |
| CC1=CC(O)(c2ccccc2)N(C(=O)c2ccncc2)N1 (centres unmarked) [Compound 39, N2(NC( = CC2(O)c3ccccc3)C)C( = O)c1ccncc1] | No | – |
| NC(=O)COc1cccnc1C(=O)O [Compound 32, NC( = O)COc1c(nccc1)C( = O)O] | No | – |
| CC1(C)S[C@@H]2[C@H](NC(=O)COc3ccccc3)C(=O)N2[C@H]1C(=O)O [Compound 37, S1[C@H]2N([C@H](C1(C)C)C( = O)[O-])C( = O)[C@H]2NC( = O)COc3ccccc3] | No | – |
| COc1cc(C=O)ccc1OCc1ccccc1COc1ccc(/C=C2/SC(=S)NC2=O)cc1OC [Compound 11, S1\C( = C\c2cc(c(cc2)OCc3c(cccc3)COc4c(cc(cc4)C = O)OC)OC)\C( = O)NC1 = S] | No | – |
| Nc1nc(O)c2nc(CNc3ccc(C(=O)O)cc3)cnc2n1 [Compound 19, N(Cc2nc3c(nc(nc3O)N)nc2)c1ccc(cc1)C( = O)O] | No | – |
| NC(=O)c1ncn([C@@H]2O[C@H](CO)[C@@H](O)[C@H]2O)c1O [Compound 28, [n]2(cnc(c2O)C( = O)N)[C@@H]1O[C@@H]([C@H]([C@H]1O)O)CO] | No | – |
| O=C1NN(c2cccc(Br)c2)C(=O)/C1=C\c1ccc(-c2ccccc2C(=O)O)o1 [Compound 9, Brc1cc(ccc1)N2NC( = O)\C( = C\c3[o]c(cc3)c4c(cccc4)C( = O)O)\C2 = O] | No | – |
| N#Cc1ccc(Oc2ccccc2O)c(F)c1 [Compound 16, Fc1c(ccc(c1)C#N)Oc2c(cccc2)O] | No | – |
| C=C(O[C@@H]1C=C(C(=O)O)C=C[C@H]1O)C(=O)O [Compound 8, O([C@H]1[C@@H](C = CC( = C1)C( = O)O)O)C( = C)C( = O)O] | No | – |
| Nc1nc(N)c2nc(CNc3ccc(C(=O)O)cc3)cnc2n1 [Compound 20, N(Cc2nc3c(nc(nc3N)N)nc2)c1ccc(cc1)C( = O)[O-]] | No | – |
| COc1ccc(C2(O)C=C(C)NN2C(=O)c2ccccc2)cc1 (centres unmarked) [Compound 40, N2(NC( = CC2(O)c3ccc(cc3)OC)C)C( = O)c1ccccc1] | No | – |
| NC(=O)c1ncn([C@@H]2O[C@H](CO)C(O)C2O)c1N (some centres unmarked) [Compound 30, [n]2(cnc(c2N)C( = O)N)[C@@H]1O[C@@H](C(C1O)O)CO] | No | – |
| O=[N+]([O-])c1ccc(O)c(/C=N/c2cccc(O)c2)c1 [Compound 35, [N+]( = O)([O-])c1cc(c(cc1)O)\C = N\c2cc(ccc2)O] | showed activity against the bacteria and Yes | IC50 [3]: 2.5 µM; MIC (B. anthracis Sterne): > 387 µM; Reduction of growth versus no-compound control (F. tularensis Schu S4 [1]): completely abolished bacterial growth; MIC (F. tularensis Schu S4 [2]): 32 µg/mL (≈ 124 µM) |
| OCC1OC(Nc2ccccc2)C(O)C(O)C1O (centres unmarked) [Compound 26, N(C2OC(C(C(C2O)O)O)CO)c1ccccc1] | No | – |
| Cc1cc(CC(N)C(=O)O)on1 (centres unmarked) [Compound 6, NC(Cc1[o]nc(c1)C)C( = O)O] | No | – |
| Cc1ccc(OC2OC(CO)C(O)C(O)C2O)cc1C (centres unmarked) [Compound 23, O1C(C(C(C(C1CO)O)O)O)Oc2cc(c(cc2)C)C] | No | – |
